The values below come from PMC6151589, “Identification of Optically Active Pyrimidine Derivatives as Selective 5-HT2C Modulators” (Molecules : A Journal of Synthetic Chemistry and Natural …, 2017).

Where two headings read alike, the source gives them in different places.

The target of experiment [1] is T1, 5-HT2C (Homo sapiens, UniProt P28335).
T1 construct: gene HTR2C; human recombinant receptor; crude membrane fractions of transfected cells (CHO-K1; HEK293 or CHO)
T1 sequence (P28335 33-458): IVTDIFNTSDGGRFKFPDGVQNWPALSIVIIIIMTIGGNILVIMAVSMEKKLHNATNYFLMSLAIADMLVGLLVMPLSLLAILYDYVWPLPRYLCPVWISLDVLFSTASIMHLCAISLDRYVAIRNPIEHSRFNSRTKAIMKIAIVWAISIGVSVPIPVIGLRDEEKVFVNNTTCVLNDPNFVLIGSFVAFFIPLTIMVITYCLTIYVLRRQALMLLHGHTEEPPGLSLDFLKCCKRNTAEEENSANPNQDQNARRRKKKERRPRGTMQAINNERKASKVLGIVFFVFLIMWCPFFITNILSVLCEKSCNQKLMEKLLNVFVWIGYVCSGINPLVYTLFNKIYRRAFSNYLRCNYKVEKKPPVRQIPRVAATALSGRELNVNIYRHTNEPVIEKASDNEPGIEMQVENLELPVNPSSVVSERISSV
In words: biochemical. On the set-up: species or system HEK293 or CHO; competitive radioligand binding on crude membranes, filtration and scintillation counting. Here is the method:
(§1) Eleven dilutions (5 × assay concentration) of the test and reference compounds (Table S1) were prepared in standard binding buffer (50 mM tris(hydroxymethyl)-aminomethane-HCl (Tris-HCl), 10 mM MgCl2, 1 mM ethylenediaminetetraacetate (EDTA), pH 7.4) by serial dilution: 0.05 nM, 0.5 nM, 1.5 nM, 5 nM, 15 nM, 50 nM, 150 nM, 500 nM, 1.5 μM, 5 μM, and 50 μM. The radioligand (Table S3) was diluted to five times the assay concentration in standard binding buffer. Aliquots ([…]) of the radioligand were dispensed into the wells of a 96-well plate containing […] of standard binding buffer. Triplicate aliquots ([…]) of the test and reference compound dilutions were then added. Finally, crude membrane fractions ([…]) of cells (HEK293 or CHO) expressing human recombinant receptors were dispensed into each well. A total of […] of the reaction mixtures was incubated at room temperature and shielded from light for 1.5 h, and was then harvested by rapid filtration onto Whatman GF/B glass fiber filters presoaked with 0.3% polyethyleneimine, by using a 96-well Brandel harvester (Gaithersburg, MD, USA). Four rapid washes were performed with chilled standard binding buffer (500 mL) to decrease nonspecific binding. Filters were placed in 6 mL scintillation tubes and allowed to dry overnight. The next day, 4-mL of EcoScint scintillation cocktail (National Diagnostics) was added to each tube. The tubes were capped, labeled, and counted by […] scintillation counting. The filter mats were dried, and the scintillant was melted onto the filters, then the radioactivity retained on the filters was counted in a Microbeta scintillation counter. The IC50 values were obtained by using the Prism 4.0 program (GraphPad Software, La Jolla, CA, USA) and were converted into Ki values. Each compound was tested at least in triplicate. With each enantiomer (R)- or (S)-5d and 5e in hand, the optically active pyrimidine derivatives 4d–4e were synthesized following the same reaction sequences (Scheme 3). Finally, compounds 4d and 4e were assessed for their binding affinity to 5-HT2 receptor subtypes by radioligand binding assays. […] A further evaluation of these compounds for other 5-HT receptor subtypes was also performed and is provided in the supplementary data (Table S2). […] Considering the potencies and selectivities of 4, we can conclude that (R,R)-4e would be a viable candidate for a selective 5-HT2C modulator.

Experiment [2] deals with T2, 5-HT5A (Homo sapiens, UniProt P47898).
T2 construct: gene HTR5A; human recombinant receptor, crude membranes of HEK293 or CHO cells
The experiment is described as follows: biochemical. On the set-up: species or system HEK293 or CHO; competitive radioligand binding on crude membranes, filtration and scintillation counting. As to the method:
as §1

Experiment [3] addresses T3, 5-HT2B (Homo sapiens, UniProt P41595).
T3 construct: gene HTR2B; human recombinant receptor; crude membrane fractions of transfected HEK293 or CHO cells
The experiment is described as follows: radioligand displacement, membranes. The class given is binding. An excerpt:
radioligand displacement, membranes on 5-HT2B

Experiment [4] deals with T1, 5-HT2C. The experiment is described as follows: [3H]mesulergine displacement, membranes. The experiment is classed as binding. The settings on record: pH […] MgCl2, room temperature; reference compound, may stem from the authors' earlier study (ref […]). The source says:
[3H]mesulergine displacement, membranes on 5-HT2C

T3 sequence (P41595 whole entry): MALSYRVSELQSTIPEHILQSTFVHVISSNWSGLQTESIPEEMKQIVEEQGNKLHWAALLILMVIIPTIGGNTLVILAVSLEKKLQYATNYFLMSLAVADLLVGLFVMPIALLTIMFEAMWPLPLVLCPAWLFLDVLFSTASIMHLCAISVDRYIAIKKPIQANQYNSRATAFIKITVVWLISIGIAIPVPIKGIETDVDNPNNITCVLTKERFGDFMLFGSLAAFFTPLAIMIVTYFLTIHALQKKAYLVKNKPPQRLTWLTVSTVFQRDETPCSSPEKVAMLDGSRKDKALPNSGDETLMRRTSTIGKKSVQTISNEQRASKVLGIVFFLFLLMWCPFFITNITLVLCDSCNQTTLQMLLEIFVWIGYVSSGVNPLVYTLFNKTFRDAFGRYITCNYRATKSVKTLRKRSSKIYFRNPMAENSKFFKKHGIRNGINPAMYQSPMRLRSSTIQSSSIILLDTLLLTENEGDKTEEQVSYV
T2 sequence (P47898 whole entry): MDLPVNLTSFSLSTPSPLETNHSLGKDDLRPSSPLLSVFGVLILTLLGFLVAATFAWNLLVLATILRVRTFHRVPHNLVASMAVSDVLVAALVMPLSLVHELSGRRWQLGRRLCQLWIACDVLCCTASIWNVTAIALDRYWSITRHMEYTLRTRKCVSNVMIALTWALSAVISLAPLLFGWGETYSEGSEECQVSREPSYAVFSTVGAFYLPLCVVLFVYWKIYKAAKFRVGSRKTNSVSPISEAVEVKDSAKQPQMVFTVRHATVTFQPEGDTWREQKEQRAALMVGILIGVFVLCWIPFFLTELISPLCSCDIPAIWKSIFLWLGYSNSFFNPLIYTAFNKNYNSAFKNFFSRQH

For `C[C@H](Oc1nc(N2CCNC[C@H]2C)ncc1F)c1cccc(F)c1` [(S,R)-4d, 5-Fluoro-4-((S)-1-(3-fluorophenyl)ethoxy)-2-((R)-2-methylpiperazin-1-yl)pyrimidine], the values for the inhibition at 10 µM in experiment [1] and in experiment [2] were 97.7% and 22.8%, respectively. Besides, in experiment [3], the Ki – broadly, a measure of affinity in units of concentration, obtained from inhibition or displacement – was 67 nM.

As to `C[C@@H]1CNCCN1c1ncc(F)c(O[C@H](C)c2cccc(F)c2)n1` [(R,R)-4d, 5-Fluoro-4-((R)-1-(3-fluorophenyl)ethoxy)-2-((R)-2-methylpiperazin-1-yl)pyrimidine], the inhibition – broadly, the change of the read-out against control, counted positive when it falls – at 10 µM in experiment [1] is 98.5%; in experiment [2], 28.1%. The compound also came in with a Ki in experiment [3] of 2.6 nM.

For `C[C@H](Oc1nc(N2CCNC[C@H]2C)ncc1F)c1ccc(F)cc1` [(S,R)-4e, 5-Fluoro-4-((S)-1-(4-fluorophenyl)ethoxy)-2-((R)-2-methylpiperazin-1-yl)pyrimidine], the results for the inhibition at 10 µM in experiment [1] and in experiment [2] were 97.8% and 5.2%, respectively. The compound also registered an inhibition constant Ki in experiment [3] of 128 nM.

In the case of `C[C@H](Cc1cccc(F)c1)Oc1nc(N2CCNC[C@H]2C)ncc1F` [compound 3, pyrimidine analogue 3], the Ki stood at 0.7 nM in experiment [4] and 7.9 nM in experiment [3] (pH […] MgCl2, room temperature, reference compound, may stem from the authors' earlier study (ref […])). Further, the inhibition at 10 µM in experiment [1] is 98.2%; in experiment [2], 37.4%.

For the compound `C[C@@H]1CNCCN1c1ncc(F)c(O[C@H](C)c2ccc(F)cc2)n1` [(R,R)-4e, 5-Fluoro-4-((R)-1-(4-fluorophenyl)ethoxy)-2-((R)-2-methylpiperazin-1-yl)pyrimidine], the inhibition at 10 µM in experiment [1] turned out to be 94.2%; in experiment [2], 26.7%. For the same compound, in experiment [3], the Ki was determined as 19 nM.
